Test results taken from patent publication US6756373B1, “Pharmaceutically active compounds” (Pfizer Inc., priority 1999, dated 2004).

Compound | melting point [°C]
C#Cc1cnc(OCCC)c(-c2nc3c(CC)nn(CCN4CCOCC4)c3c(=O)[nH]2)c1 [Example 107, 3-Ethyl-5-(5-ethynyl-2-propoxy-3-pyridinyl)-1-[2-(4-morpholinyl)ethyl]-1,6-dihydro-7H-pyrazolo[4,3-d]pyrimidin-7-one] | 137 to 139
CCCOc1ncc(C(C)=O)cc1-c1nc2c(CC)n(C3CNC3)nc2c(=O)[nH]1 [Example 117, 5-(5-Acetyl-2-propoxy-3-pyridinyl)-2-(3-azetidinyl)-3-ethyl-2,6-dihydro-7H-pyrazolo[4,3-d]pyrimidin-7-one] | 128.5 to 130
CCCOc1ncc(C(C)=O)cc1-c1nc2c(CC)n(C3CN(C(C)=O)C3)nc2c(=O)[nH]1 [Example 121, 2-(1-Acetyl-3-azetidinyl)-5-(5-acetyl-2-propoxy-3-pyridinyl)-3-ethyl-2,6-dihydro-7H-pyrazolo[4,3-d]pyrimidin-7-one] | 229.3 to 230.1
CCOc1ncc(C(C)=O)cc1-c1nc2c(CC)nn(Cc3nccn3C)c2c(=O)[nH]1 [Example 138, 5-(5-Acetyl-2-ethoxy-3-pyridinyl)-3-ethyl-1-[(1-methyl-1H-imidazol-2-yl)methyl]-1,6-dihydro-7H -pyrazolo[4,3-d]pyrimidin-7-one] | 217.9 to 218.7
CCCc1nn(C)c2c(=O)[nH]c(-c3cc(NC(C)=O)cnc3OC3CCC3)nc12 [Example 89, N-[6-(Cyclobutyloxy)-5-(1-methyl-7-oxo-3-propyl-6,7-dihydro-1H-pyrazolo[4,3-d]pyrimidin-5-yl)-3-pyridinyl]acetamide] | 279 to 281
CCCCOc1ncc(C(C)=O)cc1-c1nc2c(CC)n(C3CCN(C(=O)OC(C)(C)C)CC3)nc2c(=O)[nH]1 [Example 129, tert-Butyl 4-[5-(5-Acetyl-2-butoxy-3-pyridinyl)-3-ethyl-7-oxo-6,7-dihydro-2H-pyrazolo[4,3-d]pyrimidin-2-yl]-1-piperidinecarboxylate] | 194 to 195
CCCOc1ncc(N(C)C)cc1-c1nc2c(CCC)nn(C)c2c(=O)[nH]1 [Example 93, 5-[5-(Dimethylamino)-2-propoxy-3-pyridinyl]-1-methyl-3-propyl-1,6-dihydro-7H-pyrazolo[4,3-d]pyrimidin-7-one] | 162 to 162.5
CCCOc1ncc(I)cc1-c1nc2c(CC)n(Cc3ccccn3)nc2c(=O)[nH]1 [Example 98, 5-(2-Propoxy-5-iodo-3-pyridinyl)-3-ethyl-2-(2-pyridinylmethyl)-2,6-dihydro-7H-pyrazolo[4,3-d]pyrimidin-7-one] | 228.9 to 233.8
CCc1c2nc(-c3cc(C(C)=O)cnc3OCC(C)C)[nH]c(=O)c2nn1C1CCN(C)CC1 [Example 135, 5-(5-Acetyl-2-isobutoxy-3-pyridinyl)-3-ethyl-2-(1-methyl-4-piperidinyl)-2,6-dihydro-7H-pyrazolo[4,3-d]pyrimidin-7-one] | 195 to 196
CCCOc1ncc(NC(C)=O)cc1-c1nc2c(CCC)nn(C)c2c(=O)[nH]1 [Example 92, N-[6-(Propoxy)-5-(1-methyl-7-oxo-3-propyl-6,7-dihydro-1H-pyrazolo[4,3-d]pyrimidin-5-yl)-3-pyridinyl]acetamide] | 252 to 253
CCCOC(=O)Nc1cnc(OCCC)c(-c2nc3c(CCC)nn(C)c3c(=O)[nH]2)c1 [Example 94, Propyl 5-(1-Methyl-7-oxo-3-propyl-6,7-dihydro-1H-pyrazolo[4,3-d]pyrimidin-5-yl)-6-propoxy-3-pyridinylcarbamate] | 210 to 211
CCCOc1ncc(C(C)=O)cc1-c1nc2c(CC)n(C3CCN(C)CC3)nc2c(=O)[nH]1 [Example 125, 5-(5-Acetyl-2-propoxy-3-pyridinyl)-3-ethyl-2-(1-methyl-4-piperidinyl)-2,6-dihydro-7H-pyrazolo[4,3-d]pyrimidin-7-one] | 219 to 220
CCCOc1ncc(I)cc1-c1nc2c(CC)nn(CCN3CCOCC3)c2c(=O)[nH]1 [Example 95, 3-Ethyl-5-(5-iodo-2-propoxy-3-pyridinyl)-1-[2-(4-morpholinyl)ethyl]-1,6-dihydro-7H-pyrazolo[4,3-d]pyrimidin-7-one] | 175 to 177
CCCCOc1ncc(-c2ccco2)cc1-c1nc2c(CC)n(CCOC)nc2c(=O)[nH]1 [Example 12, 5-[2-Butoxy-5-(2-furyl)-3-pyridinyl]-3-ethyl-2-(2-methoxyethyl)-2,6-dihydro-7H-pyrazolo[4,3-d]pyrimidin-7-one] | 154 to 155
CCCOc1ncc(C(C)=O)cc1-c1nc2c(CC)n(C3CN(C)C3)nc2c(=O)[nH]1 [Example 120, 5-(5-Acetyl-2-propoxy-3-pyridinyl)-3-ethyl-2-(1-methyl-3-azetidinyl)-2,6-dihydro-7H-pyrazolo[4,3-d]pyrimidin-7-one] | 175.9 to 177
CCCc1nn(C)c2c(=O)[nH]c(-c3cc(N)cnc3OC3CCC3)nc12 [Example 90, 5-[5-Amino-2-(cyclobutyloxy)-3-pyridinyl]-1-methyl-3-propyl-1,6-dihydro-7H-pyrazolo[4,3-d]pyrimidin-7-one] | 185 to 185.5
CCCOc1ncc(NC(=O)N(C)C)cc1-c1nc2c(CCC)nn(C)c2c(=O)[nH]1 [Example 91, N′-[6-(Propoxy)-5-(1-methyl-7-oxo-3-propyl-6,7-dihydro-1H-pyrazolo[4,3-d]pyrimidin-5-yl)-3-pyridinyl]-N,N-dimethylurea] | 219 to 220

The next lines start with the values.

melting point [°C] | Compound
221 | C#Cc1cnc(OCCC)c(-c2nc3c(CC)n(C4CCN(C(=O)OC(C)(C)C)CC4)nc3c(=O)[nH]2)c1 [Example 112, tert-Butyl 4-[3-Ethyl-5-(5-ethynyl-2-propoxy-3-pyridinyl)-7-oxo-6,7-dihydro-2H-pyrazolo[4,3-d]pyrimidin-2-yl]-1-piperidinecarboxylate]
132 to 134 | CCCOc1ncc(C#C[Si](C)(C)C)cc1-c1nc2c(CC)nn(CCN3CCOCC3)c2c(=O)[nH]1
184 to 185 | CCCCOc1ncc(C(C)=O)cc1-c1nc2c(CC)n(CC3CC3)nc2c(=O)[nH]1 [Example 127]
140 to 143 | CCCOc1ncc(C(C)=O)cc1-c1nc2c(CC)nn(CCN3CCOCC3)c2c(=O)[nH]1 [Example 113, 5-(5-Acetyl-2-propoxy-3-pyridinyl)-3-ethyl-1-[2-(4-morpholinyl)ethyl]-1,6-dihydro-7H-pyrazolo[4,3-d]pyrimidin-7-one]
213 to 214 | CCCOc1ncc(C(C)=O)cc1-c1nc2c(CC)n(C3CCN(C(C)=O)CC3)nc2c(=O)[nH]1 [Example 122, 2-(1-acetyl-4-piperidinyl)-5-(5-acetyl-2-propoxy-3-pyridinyl)-3-ethyl-2,6-dihydro-7H-pyrazolo[4,3-d]pyrimidin-7-one]
200 to 201 | CCOc1ncc(C(C)=O)cc1-c1nc2c(CC)n(CC3CC3)nc2c(=O)[nH]1 [Example 128]
174 to 176 | CCCOc1ncc(C#N)cc1-c1nc2c(CCC)nn(C)c2c(=O)[nH]1 [Example 70, 5-(1-Methyl-7-oxo-3-propyl-6,7-dihydro-1-pyrazolo[4,3-d]pyrimidin-5-yl)-6-propoxynicotinonitrile]
176.5 to 177.7 | CCCOc1ncc(C(C)=O)cc1-c1nc2c(CC)n(C3CN(C(C)CC)C3)nc2c(=O)[nH]1 (stereo not shown) [Example 123, 5-(5-Acetyl-2-propoxy-3-pyridinyl)-2-(1-sec-butyl-3-azetidinyl)-3-ethyl-2,6-dihydro-7H-pyrazolo[4,3-d]pyrimidin-7-one]
